Experimental data from the supplement of paper PMC11061612.

Legend:
[1] = test system: MDST8 (Colorectal Carcinoma); test: combination Emax (second highest fraction inhibited in the dose matrix, 72 h); higher = more inhibition; extreme values may be limits of the assay
How it was run: (§1)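 Bliss excess equals the observed combination effect minus the expected value EA + EB − EA·EB, where EA and EB are the effects of each agent alone. Combination Emax is the second-highest inhibition within the matrix. Inhibition was scaled from CellTiter-Glo 2.0 luminescence, with 0 set by vehicle wells and 1 by blank wells, after 72 hours of two-drug dosing of cells plated in 1536-well plates.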

NCI-H2591 (Mesothelioma) [2] = test: as above
How it was run: as §1

[3] = test system: TT2609-C02 (Thyroid Gland Carcinoma); test: as above
How it was run: as §1

[4] = test system: SK-MG-1 (Low Grade Glioma); test: Bliss excess, mean over the matrix (fraction); higher = more synergy
How it was run: as §1

[5] = test system: MDST8 (Colorectal Carcinoma); test: as above
How it was run: as §1

[6] = test system: COLO-320-HSR (Colorectal Carcinoma); test: as above
How it was run: as §1

[7] = test system: NCI-H2141 (Small Cell Lung Carcinoma); test: as above
How it was run: as §1

[8] = test system: CAL-29 (Bladder Carcinoma); test: as above
How it was run: as §1

[9] = test system: OS-RC-2 (Kidney Carcinoma); test: as above
How it was run: as §1

[10] = test system: VCaP (Prostate Carcinoma); test: as above
How it was run: as §1

CAS-1 (Glioblastoma) = test: as above
How it was run: as §1

IGR-37 (Melanoma) = test: as above
How it was run: as §1

[11] = test system: TT (Thyroid Gland Carcinoma); test: as above
How it was run: as §1

[12] = test system: HCC1954 (Breast Carcinoma); test: as above
How it was run: as §1

NY (Osteosarcoma) = test: as above
How it was run: as §1

[13] = test system: NCI-H1581 (Non-Small Cell Lung Carcinoma); test: as above
How it was run: as §1

NCI-H2591 (Mesothelioma) [14] = test: as above
How it was run: as §1

[15] = test system: SISO (Cervical Carcinoma); test: as above
How it was run: as §1

[16] = test system: TT2609-C02 (Thyroid Gland Carcinoma); test: as above
How it was run: as §1

[17] = test system: NCI-H2066 (Squamous Cell Lung Carcinoma); test: as above
How it was run: as §1

| Structure (SMILES) | combination Emax [1] | combination Emax (NCI-H2591 (Mesothelioma) [2]) | combination Emax [3] | Bliss excess [4] | Bliss excess [5] | Bliss excess [6] | Bliss excess [7] | Bliss excess [8] | Bliss excess [9] | Bliss excess [10] | Bliss excess (CAS-1 (Glioblastoma)) | Bliss excess (IGR-37 (Melanoma)) | Bliss excess [11] | Bliss excess [12] | Bliss excess (NY (Osteosarcoma)) | Bliss excess [13] | Bliss excess (NCI-H2591 (Mesothelioma) [14]) | Bliss excess [15] | Bliss excess [16] | Bliss excess [17] |
| --- | --- | --- | --- | --- | --- | --- | --- | --- | --- | --- | --- | --- | --- | --- | --- | --- | --- | --- | --- | --- |
| CC(=O)c1c(C)c2cnc(Nc3ccc(N4CCNCC4)cn3)nc2n(C2CCCC2)c1=O [Palbociclib] + Cn1cnc2c(F)c(Nc3ccc(Br)cc3Cl)c(C(=O)NOCCO)cc21 [Selumetinib] (first compound max 10 µM, 7x7, partner max 10 µM) | 0.671 | 0.288 | 0.527 | 0.0489 | -0.031 | -0.0316 | -0.0432 | 0.0021 | -0.0712 | -0.012 | -0.018 | 0.0324 | 0.0418 | -0.0152 | -0.0227 | 0.0466 | -0.0161 | -0.0488 | -0.0666 | -0.0344 |
| COc1cccc(OCCCN)c1-c1cc(Nc2cnc(C#N)cn2)n[nH]1 [Prexasertib] + C=CCn1c(=O)c2cnc(Nc3ccc(N4CCN(C)CC4)cc3)nc2n1-c1cccc(C(C)(C)O)n1 [AZD1775] (first compound max 1 µM, partner max 1 µM) | 0.954 | 0.472 | 0.449 | 0.0712 | 0.0758 | 0.136 | -0.0348 | -0.0079 | -0.0531 | 0.022 | -0.0363 | 0.0322 | -0.103 | 0.114 | -0.008 | 0.155 | 0.0951 | 0.0814 | 0.0015 | -0.0337 |
| COc1cccc(OCCCN)c1-c1cc(Nc2cnc(C#N)cn2)n[nH]1 [Prexasertib] + CCc1c2c(nc3ccc(O)cc13)-c1cc3c(c(=O)n1C2)COC(=O)[C@]3(O)CC [SN-38] (first compound max 1 µM, 7x7, partner max 0.3 µM) | 0.94 | 0.791 | 0.95 | 0.0719 | -0.1 | 0.115 | 0.0455 | 0.002 | -0.0392 | -0.0541 | 0.0383 | -0.0727 | -0.0758 | 0.123 | -0.0647 | 0.196 | -0.0353 | 0.0277 | -0.0467 | 0.0285 |
| COc1cccc(OCCCN)c1-c1cc(Nc2cnc(C#N)cn2)n[nH]1 [Prexasertib] + CN(C)CCCOc1ccc(-c2ccc3ncc4c(c3c2)n(C2CCOCC2)c(=O)n4C)cn1 [AZD0156] (first compound max 1 µM, 7x7, partner max 1 µM) | 0.957 | 0.305 | 0.335 | -0.0321 | -0.0216 | 0.0111 | 0.009 | -0.0479 | -0.0393 | -0.0463 | -0.0336 | 0.0026 | -0.004 | -0.0298 | 0.0007 | 0.0112 | -0.0141 | -0.0056 | -0.0426 | -0.0379 |
| COc1cccc(OCCCN)c1-c1cc(Nc2cnc(C#N)cn2)n[nH]1 [Prexasertib] + C[C@@H]1COCCN1C2=NC(=NC(=C2)C3(CC3)[S@](=N)(=O)C)C4=C5C=CNC5=NC=C4 [AZD6738] (first compound max 1 µM, 7x7, partner max 10 µM) | 0.943 | 0.519 | 0.263 | -0.0012 | -0.0209 | -0.0406 | -0.047 | -0.0331 | 0.0743 | -0.0267 | -0.0095 | -0.0621 | 0.0244 | 0.0079 | -0.0031 | 0.0436 | 0.0187 | 0.0309 | -0.0002 | -0.0154 |
| COc1cccc(OCCCN)c1-c1cc(Nc2cnc(C#N)cn2)n[nH]1 [Prexasertib] + Cc1cc2ncnn2cc1Nc1ncc2c(n1)n(C1CCOCC1)c(=O)n2C [AZD7648] (first compound max 1 µM, 7x7, partner max 10 µM) | 0.943 | 0.415 | 0.276 | -0.0257 | -0.0217 | -0.0037 | -0.0315 | -0.0754 | -0.0226 | -0.0509 | -0.0053 | -0.058 | -0.0144 | -0.0179 | -0.0328 | 0.022 | -0.0079 | 0.0136 | -0.0157 | 0.0214 |
| COc1cccc(OCCCN)c1-c1cc(Nc2cnc(C#N)cn2)n[nH]1 [Prexasertib] + O=C(c1cc(Cc2n[nH]c(=O)c3ccccc23)ccc1F)N1CCN(C(=O)C2CC2)CC1 [Olaparib] (first compound max 1 µM, 7x7, partner max 10 µM) | 0.937 | 0.21 | 0.329 | 0.0026 | -0.0484 | -0.131 | -0.0509 | -0.185 | -0.0181 | -0.041 | -0.0979 | -0.0327 | -0.141 | -0.0566 | -0.0128 | 0.0257 | -0.0683 | 0.0003 | -0.0062 | -0.0492 |
| COc1cc2c(cc1OCCCCCOc1cc3c(cc1OC)C(=O)N1C=C(C)C[C@H]1C=N3)N=C[C@@H]1CC(C)=CN1C2=O [SG3199] + O=C(c1cc(Cc2n[nH]c(=O)c3ccccc23)ccc1F)N1CCN(C(=O)C2CC2)CC1 [Olaparib] (first compound max 0.001 µM, 7x7, partner max 10 µM) | 0.138 | 0.118 | 0.166 | -0.0009 | -0.0151 | -0.0213 | -0.0682 | -0.0154 | -0.0484 | -0.0455 | -0.0058 | -0.0238 | -0.0645 | -0.0356 | -0.0456 | -0.0322 | -0.0414 | -0.0198 | -0.0234 | -0.0457 |
| CCc1c2c(nc3ccc(O)cc13)-c1cc3c(c(=O)n1C2)COC(=O)[C@]3(O)CC [SN-38] + CN(C)CCCOc1ccc(-c2ccc3ncc4c(c3c2)n(C2CCOCC2)c(=O)n4C)cn1 [AZD0156] (first compound max 0.3 µM, 7x7, partner max 1 µM) | 0.802 | 0.65 | 0.441 | 0.23 | 0.0171 | 0.0243 | 0.0219 | -0.028 | -0.0022 | -0.018 | -0.0101 | -0.0327 | -0.119 | 0.035 | -0.0288 | 0.016 | -0.0118 | 0.0978 | 0.0068 | -0.0517 |
| C[C@@H](c1ccc2nccn2c1)n1nnc2ncc(-c3cnn(C)c3)nc21 [Savolitinib] + CC1(C)CCC(CN2CCN(c3ccc(C(=O)NS(=O)(=O)c4ccc(NCC5CCOCC5)c([N+](=O)[O-])c4)c(Oc4cnc5[nH]ccc5c4)c3)CC2)=C(c2ccc(Cl)cc2)C1 [Venetoclax] (first compound max 1 µM, 7x7, partner max 1 µM) | 0.176 | 0.15 | 0.0924 | -0.0549 | -0.0546 | -0.0223 | -0.108 | -0.0655 | -0.0854 | -0.0325 | -0.055 | -0.0519 | -0.0724 | -0.0189 | -0.0147 | -0.0697 | -0.0802 | -0.0438 | -0.1 | -0.0524 |
| C[C@@H](c1ccc2nccn2c1)n1nnc2ncc(-c3cnn(C)c3)nc21 [Savolitinib] + Cc1c2c(nn1C)CSCc1cc(n(C)n1)CSc1cc(c3ccccc3c1)OCCCc1c(C(=O)O)n(C)c3c-2c(Cl)ccc13 [AZD5991] (first compound max 1 µM, 7x7, partner max 1 µM) | 0.159 | 0.216 | 0.156 | -0.0648 | -0.0413 | -0.0464 | -0.0107 | -0.0474 | -0.0561 | -0.0422 | -0.0584 | 0.0454 | -0.0102 | -0.0525 | -0.0288 | -0.0209 | -0.0549 | -0.0596 | -0.0947 | -0.0455 |
| Cn1cnc2c(F)c(Nc3ccc(Br)cc3Cl)c(C(=O)NOCCO)cc21 [Selumetinib] + C=CCn1c(=O)c2cnc(Nc3ccc(N4CCN(C)CC4)cc3)nc2n1-c1cccc(C(C)(C)O)n1 [AZD1775] (first compound max 10 µM, partner max 1 µM) | 0.609 | 0.309 | 0.655 | -0.106 | -0.0165 | -0.0657 | -0.0682 | 0.0074 | -0.023 | -0.063 | -0.0342 | 0.0122 | -0.0599 | -0.0005 | -0.071 | 0.0258 | -0.0318 | -0.0457 | -0.0169 | -0.0776 |
| Cn1cnc2c(F)c(Nc3ccc(Br)cc3Cl)c(C(=O)NOCCO)cc21 [Selumetinib] + CC(C)n1c(=O)n(C)c2cnc3cc(F)c(-c4ccc(OCCCN5CCCCC5)nc4)cc3c21 [AZD1390] (first compound max 10 µM, 7x7, partner max 0.3 µM) | 0.537 | 0.199 | 0.663 | -0.049 | -0.0468 | -0.0182 | -0.0386 | -0.0073 | -0.0371 | -0.0387 | -0.053 | -0.0398 | -0.0364 | -0.0277 | -0.0149 | 0.0074 | -0.0585 | -0.0395 | -0.0387 | -0.061 |
| Cn1cnc2c(F)c(Nc3ccc(Br)cc3Cl)c(C(=O)NOCCO)cc21 [Selumetinib] + CCN(CCO)CCCOc1ccc2c(Nc3cc(CC(=O)Nc4cccc(F)c4)[nH]n3)ncnc2c1 [AZD2811] (first compound max 10 µM, 7x7, partner max 1 µM) | 0.63 | 0.29 | 0.622 | -0.0245 | -0.0214 | -0.0398 | -0.0196 | 0.0023 | -0.0252 | -0.0336 | -0.0349 | -0.0274 | -0.0472 | -0.0098 | -0.0102 | -0.0775 | -0.0459 | 0.015 | 0.0055 | -0.0322 |
| Cn1cnc2c(F)c(Nc3ccc(Br)cc3Cl)c(C(=O)NOCCO)cc21 [Selumetinib] + C[C@@H]1COCCN1C2=NC(=NC(=C2)C3(CC3)[S@](=N)(=O)C)C4=C5C=CNC5=NC=C4 [AZD6738] (first compound max 10 µM, 7x7, partner max 10 µM) | 0.784 | 0.339 | 0.506 | 0.0158 | 0.042 | -0.0678 | -0.0666 | 0.0155 | -0.0455 | -0.0602 | -0.0163 | -0.0122 | -0.0154 | -0.0327 | 0.0613 | -0.0025 | 0.0292 | -0.0241 | 0.0773 | 0.004 |
